Our source for the IC50 values is ChEMBL document CHEMBL1141922, “Benzimidazoles as non-peptide luteinizing hormone-releasing hormone (LHRH) antagonists. Part 3: Discovery of 1-(1H-benzimidazol-5-yl)-3-tert-butylurea derivatives” (Bioorg Med Chem Lett, 2005).

Assay [1] deals with T1, Gonadotropin-releasing hormone receptor (Rattus norvegicus, UniProt P30969).
T1 sequence (P30969 whole entry): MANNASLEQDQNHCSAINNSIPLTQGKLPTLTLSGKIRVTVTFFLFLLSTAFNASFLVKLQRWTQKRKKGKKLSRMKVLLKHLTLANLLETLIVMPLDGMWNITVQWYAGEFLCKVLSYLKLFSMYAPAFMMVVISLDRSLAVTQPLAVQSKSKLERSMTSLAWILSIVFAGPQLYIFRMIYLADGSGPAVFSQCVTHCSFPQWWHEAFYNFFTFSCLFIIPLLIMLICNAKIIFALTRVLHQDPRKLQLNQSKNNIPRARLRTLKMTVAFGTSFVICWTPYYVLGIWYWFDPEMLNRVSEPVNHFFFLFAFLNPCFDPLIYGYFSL
The experiment in a line: Inhibitory concentration against rat leutinizing releasing hormone receptor.

Assay [2] deals with T2, Gonadotropin-releasing hormone receptor (Homo sapiens, UniProt P30968).
T2 sequence (P30968 whole entry): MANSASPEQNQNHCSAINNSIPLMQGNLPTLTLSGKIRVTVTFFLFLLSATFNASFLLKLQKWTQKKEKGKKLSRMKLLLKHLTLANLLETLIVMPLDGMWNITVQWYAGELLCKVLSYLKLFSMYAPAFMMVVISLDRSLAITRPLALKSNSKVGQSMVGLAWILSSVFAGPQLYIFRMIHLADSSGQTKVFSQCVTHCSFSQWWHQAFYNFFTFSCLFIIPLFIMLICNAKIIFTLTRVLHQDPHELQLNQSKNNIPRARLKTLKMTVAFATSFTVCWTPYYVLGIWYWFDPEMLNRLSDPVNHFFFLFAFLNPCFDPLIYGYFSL
The experiment in a line: Inhibitory concentration against human leutinizing releasing hormone receptor.

Each structure is given as a SMILES string.

`COc1ccc([N+](=O)[O-])cc1CSc1nc2cc(NC(=O)NC(C)C)ccc2n1C(C)C`: the results for the IC50 in assay [1] and in assay [2] were 280 nM and 600 nM, respectively.

On to `COc1ccc([N+](=O)[O-])cc1CSc1nc2cc(NC(=O)NC(C)(C)C)ccc2n1Cc1ccncc1`, for which the values for the IC50 in assay [1] and in assay [2] were 240 nM and 47 nM, respectively.

With `CCCn1c(SCc2cc([N+](=O)[O-])ccc2OC)nc2cc(NC(=O)NC(C)(C)C)cc(C(=O)NCc3ccccc3)c21`, the concentration for half-maximal inhibition (IC50) (in general, the concentration needed to halve the response being measured) came to 130 nM in assay [1] and 120 nM in assay [2].

Take `CCCn1c(SCc2cc([N+](=O)[O-])ccc2OC)nc2cc(NC(=O)NC(C)(C)C)ccc21`: the results for the IC50 in assay [1] and in assay [2] were 120 nM and 18 nM, respectively.

Turning to `CC(C)n1c(SCc2ccccc2Cl)nc2cc(NC(=O)C3CC3)ccc21`, the IC50 in assay [1] was above 10000 nM; in assay [2], 6300 nM.

`COc1ccc([N+](=O)[O-])cc1CSc1nc2cc(NC(=O)OC(C)(C)C)ccc2n1C(C)C`: the IC50 in assay [1] is 710 nM; in assay [2] it was 880 nM.

With `COc1ccc([N+](=O)[O-])cc1CSc1nc2cc(NC(=O)NC(C)(C)C)ccc2n1C1CC1`, the IC50 in assay [1] is 860 nM; in assay [2], 79 nM.

Take `CNC(=O)Nc1ccc2c(c1)nc(SCc1cc([N+](=O)[O-])ccc1OC)n2C(C)C`: the IC50 is above 10000 nM in assay [1] and 3300 nM in assay [2].

As to `COC(=O)c1ccc(OC)c(CSc2nc3cc(NC(=O)C4CC4)ccc3n2C(C)C)c1`, the IC50 in assay [1] is above 10000 nM; in assay [2] it was 980 nM.

In the case of `COc1ccc([N+](=O)[O-])cc1CSc1nc2cc(NC(=O)C3CCC3)ccc2n1C(C)C`, the IC50 was 630 nM in assay [1] and 1500 nM in assay [2].

As to `COc1ccc([N+](=O)[O-])cc1CSc1nc2cc(NC(=O)C3CC3)ccc2n1C(C)C`, the IC50 in assay [1] was above 8200 nM; in assay [2], 280 nM.

For `COc1ccc([N+](=O)[O-])cc1CSc1nc2cc(NC(=O)NC(C)(C)C)ccc2n1Cc1ccccn1`, the IC50 is 670 nM in assay [1] and 43 nM in assay [2].

For the compound `CCCn1c(SCc2cc([N+](=O)[O-])ccc2OC)nc2cc(NC(=O)NC(C)(C)C)cc(C(=O)OC)c21`, the IC50 in assay [1] worked out at 280 nM; in assay [2] it was 37 nM.

For the compound `COc1ccc(Cl)cc1CSc1nc2cc(NC(=O)C3CC3)ccc2n1C(C)C`, the IC50 in assay [1] is above 10000 nM; in assay [2] it was 160 nM.

`CCCn1c(SCc2cc([N+](=O)[O-])ccc2OC)nc2cc(NC(=O)NC(C)(C)C)cc(C(=O)O)c21`: the IC50 in assay [1] was found to be 510 nM; in assay [2], 21 nM.

For `COc1ccc([N+](=O)[O-])cc1CSc1nc2cc(NC(=O)CC(C)(C)C)ccc2n1C(C)C`, the IC50 was 110 nM in assay [1] and 180 nM in assay [2].

Take `COc1ccc(C#N)cc1CSc1nc2cc(NC(=O)C3CC3)ccc2n1C(C)C`: the results for the IC50 in assay [1] and in assay [2] were above 10000 nM and 570 nM, respectively.

For the compound `CCCn1c(SCc2cc([N+](=O)[O-])ccc2OC)nc2cc(NC(=O)NC(C)(C)C)cc(C(=O)NCCCN(C)C)c21`, the IC50 in assay [1] came out at 19 nM; in assay [2], 170 nM.

`COc1ccc([N+](=O)[O-])cc1CSc1nc2cc(NC(=O)C(C)C)ccc2n1C(C)C`: the concentration for half-maximal inhibition (IC50) in assay [1] was 1500 nM; in assay [2], 250 nM.

As for `CCCn1c(SCc2cc([N+](=O)[O-])ccc2OC)nc2cc(NC(=O)NC(C)(C)C)cc(C(=O)NCc3ccccn3)c21`, the half-inhibitory concentration (IC50) was determined as 51 nM in assay [1] and 31 nM in assay [2].

For `COCCn1c(SCc2cc([N+](=O)[O-])ccc2OC)nc2cc(NC(=O)NC(C)(C)C)ccc21`, the IC50 is 280 nM in assay [1] and 57 nM in assay [2].

Regarding `CCCn1c(SCc2cc([N+](=O)[O-])ccc2OC)nc2cc(NC(=O)NC(C)(C)C)cc(C(=O)NCCN)c21`, the concentration for half-maximal inhibition (IC50) turned out to be 55 nM in assay [1] and 210 nM in assay [2].

As to `CCCn1c(SCc2cc([N+](=O)[O-])ccc2OC)nc2cc(NC(=O)NC(C)(C)C)cc(C(=O)NCCCN(C)Cc3ccccc3)c21`, the IC50 was found to be 21 nM in assay [1] and 190 nM in assay [2].

For the compound `COc1ccc([N+](=O)[O-])cc1CSc1nc2cc(NC(=O)NC(C)(C)C)ccc2n1CCc1ccccc1`, the IC50 is 300 nM in assay [1] and 360 nM in assay [2].

For `Cc1ccccc1CSc1nc2cc(NC(=O)C3CC3)ccc2n1C(C)C`, the IC50 is above 10000 nM in assay [1] and 3200 nM in assay [2].

As for `CCCn1c(SCc2cc([N+](=O)[O-])ccc2OC)nc2cc(NC(=O)NC(C)(C)C)cc(C(=O)N(C)C)c21`, the results for the IC50 in assay [1] and in assay [2] were 200 nM and 270 nM, respectively.

For the compound `COc1ccc([N+](=O)[O-])cc1CSc1nc2cc(NC(=O)NC(C)(C)C)ccc2n1Cc1cccnc1`, the IC50 was determined as 150 nM in assay [1] and 33 nM in assay [2].

Regarding `CCn1c(SCc2cc([N+](=O)[O-])ccc2OC)nc2cc(NC(=O)NC(C)(C)C)ccc21`, the IC50 in assay [1] came out at 170 nM; in assay [2], 42 nM.

For the compound `COc1ccc([N+](=O)[O-])cc1CSc1nc2cc(NC(=O)NC3CC3)ccc2n1C(C)C`, the results for the IC50 in assay [1] and in assay [2] were 1600 nM and 1900 nM, respectively.

As to `CCCn1c(SCc2cc([N+](=O)[O-])ccc2OC)nc2cc(NC(=O)NC(C)(C)C)cc(C(=O)NCCc3cccnc3)c21`, the IC50 in assay [1] was 110 nM; in assay [2] it was 160 nM.

For the compound `CCCn1c(SCc2cc([N+](=O)[O-])ccc2OC)nc2cc(NC(=O)NC(C)(C)C)cc(C(=O)NCCc3ccccn3)c21`, the values for the IC50 in assay [1] and in assay [2] were 56 nM and 27 nM, respectively.

As to `CCCCCn1c(SCc2cc([N+](=O)[O-])ccc2OC)nc2cc(NC(=O)NC(C)(C)C)ccc21`, the concentration for half-maximal inhibition (IC50) came out at 880 nM in assay [1] and 210 nM in assay [2].

Take `CCCn1c(SCc2cc([N+](=O)[O-])ccc2OC)nc2cc(NC(=O)NC(C)(C)C)cc(C(=O)NC(C)(C)C)c21`: the IC50 amounted to 490 nM in assay [1] and 410 nM in assay [2].

As for `Cc1cccc(CSc2nc3cc(NC(=O)C4CC4)ccc3n2C(C)C)c1`, the results for the IC50 in assay [1] and in assay [2] were above 10000 nM and 6500 nM, respectively.

`COc1ccc([N+](=O)[O-])cc1CSc1nc2cc(NC(=O)NC(C)(C)C)ccc2n1-c1ccccc1`: the IC50 was above 2600 nM in assay [1] and 350 nM in assay [2].

On to `CCCn1c(SCc2cc([N+](=O)[O-])ccc2OC)nc2cc(NC(=O)NC(C)(C)C)cc(C(=O)N3CCCC3)c21`, for which the half-maximal inhibitory concentration (IC50) in assay [1] worked out at 140 nM; in assay [2] it was 610 nM.

For the compound `CCCCn1c(SCc2cc([N+](=O)[O-])ccc2OC)nc2cc(NC(=O)NC(C)(C)C)ccc21`, the figures for the IC50 in assay [1] and in assay [2] were 330 nM and 23 nM, respectively.

As for `CCCn1c(SCc2cc([N+](=O)[O-])ccc2OC)nc2cc(NC(=O)NC(C)(C)C)cc(C(=O)NCc3cccnc3)c21`, the concentration for half-maximal inhibition (IC50) in assay [1] was 54 nM; in assay [2] it was 69 nM.

For `COc1ccc([N+](=O)[O-])cc1CSc1nc2cc(NC(=O)NC(C)(C)C)ccc2n1Cc1ccccc1`, the IC50 worked out at 160 nM in assay [1] and 28 nM in assay [2].

As for `COc1ccc([N+](=O)[O-])cc1CSc1nc2cc(NC(=O)C(C)(C)C)ccc2n1C(C)C`, the IC50 is above 10000 nM in assay [1] and 180 nM in assay [2].

For the compound `COc1ccc(C(C)=O)cc1CSc1nc2cc(NC(=O)C3CC3)ccc2n1C(C)C`, the values for the IC50 in assay [1] and in assay [2] were above 10000 nM and 260 nM, respectively.

As to `COc1ccccc1CSc1nc2cc(NC(=O)C3CC3)ccc2n1C(C)C`, the half-maximal inhibitory concentration (IC50) was above 10000 nM in assay [1] and 2100 nM in assay [2].

Turning to `COc1ccc([N+](=O)[O-])cc1CSc1nc2cc(NC(=O)NC(C)(C)C)ccc2n1C(C)C`, the IC50 in assay [1] and in assay [2] was 62 nM each time.

Consider `CCCn1c(SCc2cc([N+](=O)[O-])ccc2OC)nc2cc(NC(=O)NC(C)(C)C)cc(C(=O)NCc3ccncc3)c21`, for which the 50% inhibitory concentration (IC50) was 35 nM in assay [1] and 61 nM in assay [2].

For the compound `CCCn1c(SCc2cc([N+](=O)[O-])ccc2OC)nc2cc(NC(=O)NC(C)(C)C)cc(C(=O)NC)c21`, the results for the IC50 in assay [1] and in assay [2] were 23 nM and 41 nM, respectively.

Turning to `CCCn1c(SCc2cc([N+](=O)[O-])ccc2OC)nc2cc(NC(=O)NC(C)(C)C)cc(C(=O)NCCc3ccncc3)c21`, the concentration for half-maximal inhibition (IC50) in assay [1] amounted to 45 nM; in assay [2], 130 nM.
